Experimental data taken from patent US20260365670A1, “EGFR INHIBITORS AND USES THEREOF” (DIZAL (JIANGSU) PHARMACEUTICAL CO., LTD., priority 2022, published 2026).
Like-named read-outs stand apart in the source and are kept apart here.

Key:
EGFR L858R/T790M = target: T1, EGFR L858R/T790M (Homo sapiens, UniProt P00533, L858R/T790M); experiment: Inhibition of EGFR L858R/T790M biochemical enzymatic activity (HTRF); settings: EGFR L858R-T790M, 1 mM ATP, 1 h, room temperature, read-out: IC50 (nM) @L858R-T790M
T1 construct: purchased Carna Bio
Procedure, shortened: (§1)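 Phosphorylation of TK Substrate-biotin (1 μM) was measured at 1 mM ATP over a 1 h room-temperature incubation with serially varied compound. Detection was by HTRF ratio and analysis by 4PL fit to IC50.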

[1] = target: T2, EGFR[T790M/C797S/d746-750] (Homo sapiens, UniProt P00533, C797S/DEL746-750/T790M); experiment: Inhibition of EGFR[T790M/C797S/d746-750] biochemical enzymatic activity (HTRF); settings: EGFR T790M-C797S-Del19, 1 mM ATP, 1 h, room temperature, read-out: IC50 (nM) @T790M - C797S - Del19
T2 construct: purchased Carna Bio
Procedure, shortened: as §1

[2] = system: Ba/F3 cells expressing EGFR mutations; experiment: Cell proliferation assay, Ba/F3 cells expressing EGFR mutations (CellTiter-Glo, 72 hours); assay type: cell-based; settings: Mus musculus, BaF3, 72 h
Procedure, shortened: (§2)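 Growth over 72 h was quantified by CellTiter-Glo luminescence, normalised as (G3 − G0)/(DMSO G3 − G0), for PC-9 cells seeded at 500/well and EGFR-mutant Ba/F3 cells at 5000/well in RPMI1640. Compound concentration series added after overnight incubation; GI50 obtained from best-fit curves.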

EGFR L858R = target: T3, EGFR L858R (Homo sapiens, UniProt P00533, L858R); experiment: Inhibition of EGFR L858R biochemical enzymatic activity (HTRF); settings: 1 mM ATP, 1 h, room temperature, read-out: IC50 (nM) @L858R
T3 construct: purchased Carna Bio
Procedure, shortened: as §1

EGFR (C797S L858R) = target: T4, EGFR (C797S L858R) (Homo sapiens, UniProt P00533, C797S/L858R); experiment: Inhibition of EGFR (C797S L858R) biochemical enzymatic activity (HTRF); settings: EGFR L858-C797S, 1 mM ATP, 1 h, room temperature, read-out: IC50 (nM) @L858-C797S
T4 construct: purchased signalchem
Procedure, shortened: as §1

EGFR[T790M/C797S/L858R] = target: T5, EGFR[T790M/C797S/L858R] (Homo sapiens, UniProt P00533, C797S/L858R/T790M); experiment: Inhibition of EGFR[T790M/C797S/L858R] biochemical enzymatic activity (HTRF); settings: EGFR T790M-C797S-L858R, 1 mM ATP, 1 h, room temperature, read-out: IC50 (nM) @T790M- C797S - L858R
T5 construct: purchased Carna Bio
Procedure, shortened: as §1

EGFR wild type = target: T6, EGFR wild type (Homo sapiens, UniProt P00533); experiment: Inhibition of EGFR wild type biochemical enzymatic activity (HTRF); settings: EGFR WT, 1 mM ATP, 1 h, room temperature, read-out: IC50 (nM) @WT
T6 construct: purchased Carna Bio
Procedure, shortened: as §1

EGFR Exon19Del = target: T7, EGFR Exon19Del (Homo sapiens, UniProt P00533, DEL746-750); experiment: Inhibition of EGFR Exon19Del biochemical enzymatic activity (HTRF); settings: EGFR Del19, 1 mM ATP, 1 h, room temperature, read-out: IC50 @Del19
T7 construct: purchased Carna Bio
Procedure, shortened: as §1

EGFR Exon19Del/T790M = target: T8, EGFR Exon19Del/T790M (Homo sapiens, UniProt P00533, DEL746-750/T790M); experiment: Inhibition of EGFR Exon19Del/T790M biochemical enzymatic activity (HTRF); settings: EGFR Del19-T790M, 1 mM ATP, 1 h, room temperature, read-out: IC50 (nM) @Del19-T790M
T8 construct: purchased Carna Bio
Procedure, shortened: as §1

EGFR (d746-750 C797S) = target: T9, EGFR (d746-750 C797S) (Homo sapiens, UniProt P00533, C797S/DEL746-750); experiment: Inhibition of EGFR (d746-750 C797S) biochemical enzymatic activity (HTRF); settings: EGFR Del19-C797S, 1 mM ATP, 1 h, room temperature, read-out: IC50 (nM) @Del19-C797S
T9 construct: purchased signalchem
Procedure, shortened: as §1

PC-9 = experiment: Cell proliferation assay, PC-9 cells (CellTiter-Glo, 72 hours); assay type: cell-based; settings: Homo sapiens, PC-9, 72 h, PC9 cells, read-out: GI50 PC9
Procedure, shortened: as §2

A-431 = experiment: Cell proliferation assay, A-431 cells (GI50, Table 6); assay type: cell-based; settings: Homo sapiens, A-431, A-431 cells
[3] = BaF3 cells, EGFR DEL19 - C797S, read-out: GI50 DEL19 - C797S/BaF3
[4] = BaF3 cells, EGFR DEL19 - T790-C797S, read-out: GI50 DEL19 - T790-C797S/BaF3
[5] = BaF3 cells, EGFR L858R - C797S, read-out: GI50 L858R - C797S/BaF3
[6] = BaF3 cells, EGFR L858R - T790-C797S, read-out: GI50 L858R - T790-C797S/BaF3
[7] = BaF3 cells, EGFR L858R - T790M, read-out: GI50 L858R - T790M/BaF3
[8] = BaF3 cells, EGFR L858R, read-out: GI50 L858R/BaF3
[9] = EGFR DEL19 - T790M, read-out: GI50 DEL19 - T790M

T6 sequence (P00533 25-1210): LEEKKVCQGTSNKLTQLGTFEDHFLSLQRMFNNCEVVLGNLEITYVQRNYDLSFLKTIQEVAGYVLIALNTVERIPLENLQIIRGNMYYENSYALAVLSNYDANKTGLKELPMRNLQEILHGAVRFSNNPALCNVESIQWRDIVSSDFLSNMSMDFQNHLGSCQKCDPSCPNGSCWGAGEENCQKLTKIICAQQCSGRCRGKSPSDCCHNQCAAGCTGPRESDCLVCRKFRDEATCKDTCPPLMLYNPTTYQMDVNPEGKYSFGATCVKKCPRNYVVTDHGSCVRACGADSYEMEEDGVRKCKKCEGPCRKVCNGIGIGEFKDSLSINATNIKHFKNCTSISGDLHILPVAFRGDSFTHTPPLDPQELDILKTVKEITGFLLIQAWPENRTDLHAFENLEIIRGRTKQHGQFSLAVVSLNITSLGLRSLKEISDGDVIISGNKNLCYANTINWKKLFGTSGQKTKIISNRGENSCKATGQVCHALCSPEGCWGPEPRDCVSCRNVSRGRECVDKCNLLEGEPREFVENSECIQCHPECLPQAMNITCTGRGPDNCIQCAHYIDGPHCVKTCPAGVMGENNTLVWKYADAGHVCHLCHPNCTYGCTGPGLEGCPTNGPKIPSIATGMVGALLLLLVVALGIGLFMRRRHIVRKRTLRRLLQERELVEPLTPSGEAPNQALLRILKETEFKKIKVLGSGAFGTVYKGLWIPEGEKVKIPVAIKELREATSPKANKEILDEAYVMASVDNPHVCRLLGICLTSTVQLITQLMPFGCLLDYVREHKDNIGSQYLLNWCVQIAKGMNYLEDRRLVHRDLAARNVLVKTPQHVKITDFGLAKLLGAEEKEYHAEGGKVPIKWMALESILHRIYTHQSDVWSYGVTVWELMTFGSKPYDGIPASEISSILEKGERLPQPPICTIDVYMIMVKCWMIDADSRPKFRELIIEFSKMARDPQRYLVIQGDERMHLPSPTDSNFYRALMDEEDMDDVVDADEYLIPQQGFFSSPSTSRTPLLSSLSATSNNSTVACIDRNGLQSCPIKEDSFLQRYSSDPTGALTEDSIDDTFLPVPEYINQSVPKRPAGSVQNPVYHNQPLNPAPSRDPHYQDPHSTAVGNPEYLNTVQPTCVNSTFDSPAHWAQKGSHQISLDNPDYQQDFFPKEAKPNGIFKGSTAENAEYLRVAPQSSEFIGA
T9 sequence (P00533 with tags, fused parts or gaps DEL746-750/C797S limits assumed): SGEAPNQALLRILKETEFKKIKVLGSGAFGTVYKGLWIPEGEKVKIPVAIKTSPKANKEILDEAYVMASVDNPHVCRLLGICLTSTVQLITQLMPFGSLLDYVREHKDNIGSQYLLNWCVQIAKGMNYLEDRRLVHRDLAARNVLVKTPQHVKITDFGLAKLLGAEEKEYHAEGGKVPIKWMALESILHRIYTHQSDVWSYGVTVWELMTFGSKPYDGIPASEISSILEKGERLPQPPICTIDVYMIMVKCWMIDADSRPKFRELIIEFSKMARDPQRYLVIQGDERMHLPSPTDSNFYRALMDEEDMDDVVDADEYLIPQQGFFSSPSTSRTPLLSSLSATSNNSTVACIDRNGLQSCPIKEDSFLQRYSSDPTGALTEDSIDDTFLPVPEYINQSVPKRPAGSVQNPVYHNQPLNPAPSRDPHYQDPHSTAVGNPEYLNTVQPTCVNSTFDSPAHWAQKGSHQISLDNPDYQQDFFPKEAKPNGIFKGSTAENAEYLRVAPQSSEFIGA
T4 sequence (P00533 25-1210 C797S/L858R): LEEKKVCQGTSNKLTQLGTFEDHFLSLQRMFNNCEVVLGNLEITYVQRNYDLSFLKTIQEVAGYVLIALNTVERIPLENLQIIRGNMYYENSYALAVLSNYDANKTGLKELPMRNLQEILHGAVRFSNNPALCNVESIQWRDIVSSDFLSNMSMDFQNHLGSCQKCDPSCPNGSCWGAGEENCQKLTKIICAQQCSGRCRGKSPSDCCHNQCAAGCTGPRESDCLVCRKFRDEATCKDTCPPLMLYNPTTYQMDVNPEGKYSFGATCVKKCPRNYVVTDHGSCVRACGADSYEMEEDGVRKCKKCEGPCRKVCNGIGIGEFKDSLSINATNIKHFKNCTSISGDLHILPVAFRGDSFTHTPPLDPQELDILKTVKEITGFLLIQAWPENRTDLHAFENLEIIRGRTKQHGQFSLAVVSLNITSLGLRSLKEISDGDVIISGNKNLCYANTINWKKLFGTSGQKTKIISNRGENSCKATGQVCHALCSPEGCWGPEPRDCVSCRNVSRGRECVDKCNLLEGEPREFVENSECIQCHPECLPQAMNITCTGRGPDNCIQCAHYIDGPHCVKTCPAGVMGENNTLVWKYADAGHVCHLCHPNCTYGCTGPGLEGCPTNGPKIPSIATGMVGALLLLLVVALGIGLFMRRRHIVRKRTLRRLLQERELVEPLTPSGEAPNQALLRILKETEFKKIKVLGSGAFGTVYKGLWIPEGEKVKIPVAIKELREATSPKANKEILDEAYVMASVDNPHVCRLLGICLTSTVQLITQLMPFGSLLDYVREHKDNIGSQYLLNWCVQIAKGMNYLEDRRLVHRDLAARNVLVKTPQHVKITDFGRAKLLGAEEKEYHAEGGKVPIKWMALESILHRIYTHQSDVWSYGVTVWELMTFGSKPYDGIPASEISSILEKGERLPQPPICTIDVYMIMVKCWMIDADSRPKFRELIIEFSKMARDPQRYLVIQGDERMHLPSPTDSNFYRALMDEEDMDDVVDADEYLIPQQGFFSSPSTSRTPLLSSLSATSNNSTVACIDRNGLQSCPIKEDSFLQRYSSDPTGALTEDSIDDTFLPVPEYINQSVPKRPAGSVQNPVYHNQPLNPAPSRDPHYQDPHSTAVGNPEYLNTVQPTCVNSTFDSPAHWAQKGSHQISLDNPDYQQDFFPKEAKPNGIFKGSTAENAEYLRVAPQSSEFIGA
T7 sequence (P00533 with tags, fused parts or gaps DEL746-750 limits assumed): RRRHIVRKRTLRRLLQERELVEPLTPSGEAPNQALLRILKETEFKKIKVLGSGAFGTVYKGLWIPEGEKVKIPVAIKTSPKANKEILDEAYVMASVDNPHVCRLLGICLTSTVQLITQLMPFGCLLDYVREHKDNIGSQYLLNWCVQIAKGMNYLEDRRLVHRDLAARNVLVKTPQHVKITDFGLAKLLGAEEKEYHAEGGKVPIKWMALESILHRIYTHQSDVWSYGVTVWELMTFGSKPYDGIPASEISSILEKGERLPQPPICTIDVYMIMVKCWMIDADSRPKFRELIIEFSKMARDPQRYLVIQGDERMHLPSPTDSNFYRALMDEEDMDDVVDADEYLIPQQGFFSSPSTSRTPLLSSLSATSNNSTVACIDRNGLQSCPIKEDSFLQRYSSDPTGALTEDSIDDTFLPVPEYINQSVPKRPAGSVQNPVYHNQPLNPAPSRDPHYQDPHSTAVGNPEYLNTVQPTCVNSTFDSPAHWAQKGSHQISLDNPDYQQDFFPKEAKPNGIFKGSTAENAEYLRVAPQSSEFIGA
T3 sequence (P00533 25-1210 L858R): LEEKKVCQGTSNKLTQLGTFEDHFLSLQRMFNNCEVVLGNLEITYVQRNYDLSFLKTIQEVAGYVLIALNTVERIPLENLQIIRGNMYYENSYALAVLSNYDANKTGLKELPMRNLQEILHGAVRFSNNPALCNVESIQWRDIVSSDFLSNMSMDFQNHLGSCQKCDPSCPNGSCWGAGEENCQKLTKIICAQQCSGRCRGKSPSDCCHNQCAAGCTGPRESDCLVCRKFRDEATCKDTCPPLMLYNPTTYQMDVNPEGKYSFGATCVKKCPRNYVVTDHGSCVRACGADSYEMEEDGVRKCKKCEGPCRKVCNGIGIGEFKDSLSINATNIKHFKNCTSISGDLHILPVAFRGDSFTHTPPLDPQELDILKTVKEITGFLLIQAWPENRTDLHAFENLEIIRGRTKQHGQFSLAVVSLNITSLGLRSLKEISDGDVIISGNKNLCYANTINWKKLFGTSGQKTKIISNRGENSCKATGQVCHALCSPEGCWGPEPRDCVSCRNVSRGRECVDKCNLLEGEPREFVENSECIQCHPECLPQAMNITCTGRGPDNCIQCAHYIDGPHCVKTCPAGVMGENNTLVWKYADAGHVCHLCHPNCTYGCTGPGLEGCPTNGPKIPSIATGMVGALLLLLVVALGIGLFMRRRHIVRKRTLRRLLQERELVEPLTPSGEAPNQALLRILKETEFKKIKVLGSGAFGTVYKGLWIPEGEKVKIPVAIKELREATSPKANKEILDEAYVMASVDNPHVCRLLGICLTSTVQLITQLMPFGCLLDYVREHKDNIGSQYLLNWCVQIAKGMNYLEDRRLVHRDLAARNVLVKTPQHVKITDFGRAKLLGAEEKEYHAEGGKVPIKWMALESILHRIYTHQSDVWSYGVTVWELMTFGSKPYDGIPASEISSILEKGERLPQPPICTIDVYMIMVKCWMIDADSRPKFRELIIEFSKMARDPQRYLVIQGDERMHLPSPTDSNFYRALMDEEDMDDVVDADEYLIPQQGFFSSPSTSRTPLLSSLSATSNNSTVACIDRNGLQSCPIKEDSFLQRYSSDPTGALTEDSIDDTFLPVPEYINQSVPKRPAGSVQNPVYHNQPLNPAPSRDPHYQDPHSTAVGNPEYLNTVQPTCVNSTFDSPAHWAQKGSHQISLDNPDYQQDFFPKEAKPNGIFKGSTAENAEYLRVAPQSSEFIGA

Row | IC50 (EGFR L858R/T790M) | IC50 [1] | GI50 [2, 3] | GI50 [2, 4] | GI50 [2, 5] | GI50 [2, 6] | GI50 [2, 7] | GI50 [2, 8] | GI50 [2, 9] | IC50 (EGFR L858R) | IC50 (EGFR (C797S L858R)) | IC50 (EGFR[T790M/C797S/L858R]) | IC50 (EGFR wild type) | IC50 (EGFR Exon19Del) | IC50 (EGFR Exon19Del/T790M) | IC50 (EGFR (d746-750 C797S)) | GI50 (PC-9) | GI50 (A-431) | Compound
1 | 477 nM | 10 nM | 7.8 nM | 44 nM | 35 nM | 15 nM | 61 nM | 12 nM | 25 nM | 167 nM | 101 nM | 154 nM | > 5000 nM | 25 nM | 21 nM | 19 nM | 27 nM | 4970 nM | CN(C)[C@@H]1CCN(c2ccc3nc4n(c3c2)C23CCC(CC2)CN(CCOc2c(cnn2C)-c2cc(cn(C)c2=O)C(=O)N4)C3)C1 [Example A121]
2 | 39 nM | 5.2 nM | 3.2 nM | 22 nM | 19 nM | 13 nM | 82 nM | 4.1 nM | – | 48 nM | 25 nM | 8.1 nM | 1420 nM | 6.8 nM | 7.6 nM | 3.5 nM | 22 nM | 2100 nM | CN1CCC12CCN(c1ccc3nc4n(c3c1)C13CCC(CC1)CN(CCOc1c(cnn1C)-c1cc(cn(C)c1=O)C(=O)N4)C3)CC2 [Example A122]
3 | 223 nM | 11 nM | 12 nM | 45 nM | 32 nM | 20 nM | 59 nM | 5.8 nM | 27 nM | 65 nM | 57 nM | 23 nM | > 5000 nM | 13 nM | 13 nM | 9.4 nM | 25 nM | 6110 nM | CN1CCC2(CC1)CCN(c1ccc3nc4n(c3c1)C13CCC(CC1)CN(CCOc1c(cnn1C)-c1cc(cn(C)c1=O)C(=O)N4)C3)C2 [Example A123]
4 | 334 nM | 7.7 nM | 7.2 nM | 38 nM | 32 nM | 11 nM | 47 nM | 5.2 nM | 26 nM | 139 nM | 76 nM | 72 nM | 2790 nM | 15 nM | 9.8 nM | 11 nM | 27 nM | 3800 nM | CN(C)CCN(C)c1ccc2nc3n(c2c1)C12CCC(CC1)CN(CCOc1c(cnn1C)-c1cc(cn(C)c1=O)C(=O)N3)C2 [Example A124]
5 | 582 nM | 15 nM | 7.9 nM | 43 nM | 34 nM | 21 nM | 64 nM | 7 nM | 30 nM | 189 nM | 128 nM | 359 nM | 4060 nM | 29 nM | 18 nM | 25 nM | 35 nM | 3740 nM | CN(C)CCCN(C)c1ccc2nc3n(c2c1)C12CCC(CC1)CN(CCOc1c(cnn1C)-c1cc(cn(C)c1=O)C(=O)N3)C2 [Example A125]
6 | 169 nM | 8.9 nM | 7.3 nM | 36 nM | 29 nM | 18 nM | 50 nM | 5.5 nM | 26 nM | 95 nM | 71 nM | 52 nM | > 5000 nM | 13 nM | 12 nM | 9.9 nM | 34 nM | 4090 nM | CN1CC2CN(c3ccc4nc5n(c4c3)C34CCC(CC3)CN(CCOc3c(cnn3C)-c3cc(cn(C)c3=O)C(=O)N5)C4)CC2C1 (centres unmarked) [Example A126]
7 | 211 nM | 6.1 nM | 8.5 nM | 36 nM | 38 nM | 21 nM | 52 nM | 7.2 nM | 26 nM | 118 nM | 69 nM | 39 nM | 4880 nM | 15 nM | 10 nM | 9.2 nM | 34 nM | 4680 nM | CN1CCC2CN(c3ccc4nc5n(c4c3)C34CCC(CC3)CN(CCOc3c(cnn3C)-c3cc(cn(C)c3=O)C(=O)N5)C4)CC21 (centres unmarked) [Example A127]
8 | 307 nM | 4.7 nM | 13 nM | 90 nM | 65 nM | 47 nM | 119 nM | 11 nM | 66 nM | 202 nM | 49 nM | 33 nM | > 5000 nM | 11 nM | 8 nM | 4.9 nM | 61 nM | 2650 nM | Cn1ncc2c1OCCN1CC3CCC(CC3)(C1)n1c(nc3ccc(N4CCN(C5CC5)CC4)cc31)NC(=O)c1cc-2c(=O)n(C)c1 [Example A128]
9 | 15 nM | 13 nM | 95 nM | 20 nM | 736 nM | 51 nM | 98 nM | 751 nM | 22 nM | 1480 nM | 112 nM | 23 nM | > 5000 nM | 150 nM | 6.5 nM | 2200 nM | 410 nM | 4390 nM | Cc1cc2cc(n1)-c1cnn(C)c1OCCN1CC3CCC(CC3)(C1)n1c(nc3ccccc31)NC2=O [Example B1, 15,21-Dimethyl-23-oxa-2,9,11,16,20,21,26-heptaazaheptacyclo[26.2.2.1^{1,26}.1^{13,17}.0^{2,10}.0^{3,8}.0^{18,22}]tetratriaconta-3,5,7,9,13,15,17(34),18(22),19-nonaen-12-one]
10 | 25 nM | 20 nM | 18 nM | 4.7 nM | 153 nM | 10 nM | 14 nM | 125 nM | 5 nM | 320 nM | 28 nM | 36 nM | > 5000 nM | 47 nM | 13 nM | 560 nM | 102 nM | 3160 nM | Cc1cc2cc(n1)-c1cnn(C)c1OCCN1CC3CCC(CC3)(C1)n1c(nc3ccc(N4CCOCC4)cc31)NC2=O [Example B2, 15,21-Dimethyl-5-(morpholin-4-yl)-23-oxa-2,9,11,16,20,21,26-heptaazaheptacyclo[26.2.2.1^{1,26}.1^{13,17}.0^{2,10}.0^{3,8}.0^{18,22}]tetratriaconta-3,5,7,9,13,15,17(34),18(22),19-nonaen-12-one]
